Reference: PMC8847585, “Induction of senescence-associated secretory phenotype underlies the therapeutic efficacy of PRC2 inhibition in cancer” (Cell Death & Disease, 2022)

Assays:
[1] = tested on: WSU-DLCL2 (EZH2-Y641F) cell; assay: Anti-proliferation of lymphoma cell WSU-DLCL2, viable cell count; assay type: cell-based; settings: Homo sapiens, WSUDLCL2, 216 h, read-out: IC50 of proliferation inhibition
Description: (§1) Viable cell numbers were counted every 3 days up to 15 days by Vi-CELL (Beckman Coulter). For cell cycle analysis, MAK683 treated cells were fixed with pre-chilled 70% ethanol and kept at -20 degree overnight. On the second day, the cells were washed with cold PBS twice and collected by spin at 1000 rpm, digested with RNase A, then stained with 10 μg /mL Propidium Iodide in PBS solution for 30 min at room temperature. The stained cell samples were filtered through 70 μm cell strainer, and the staining signals were detected using flow cytometer (BD Fortessa). The acquired data were further analyzed by Modfit LT.

H3K27me3 in HeLa cell = assay: Inhibition of cellular H3K27me3 (western blot quantification); assay type: cell-based; settings: Homo sapiens, 72 hr of treatment, n = 3
Description: Cells were washed once with cold PBS and lysed by RIPA lysis buffer and incubated with 4 × SDS loading buffer at 95 °C for 10 min. Whole cell proteins were used for electrophoresis and then transferred to a nitrocellulose membrane. The membrane was blocked with Tris buffered saline containing 0.075% Tween-20 and 5% non-fat milk. Then the membranes were incubated with primary antibodies overnight at 4 °C. The next day, membranes were incubated with secondary antibodies for 1 h at room temperature.

MCAS cells = assay: Cancer cell proliferation, viable cell count; assay type: cell-based; settings: up to 15 days
Description: as §1

RD cells = assay: Cancer cell proliferation, viable cell count; assay type: cell-based; settings: up to 15 days
Description: as §1

HeLa cells = assay: Cancer cell proliferation, viable cell count; assay type: cell-based; settings: up to 15 days
Description: as §1

A2780 cells = assay: Cancer cell proliferation, viable cell count; assay type: cell-based; settings: A2780 (ARID1A-deficiency), up to 15 days
Description: as §1

G401 xenograft tumors = assay: Subcutaneous G401 xenograft tumor study; assay type: in vivo, mice
Description: (§2) The animal study design and performance were evaluated and approved by Institutional Animal Care and Use Committee of ShanghaiTech University under the document number of 20201225001 and following the internationally recognized guidelines on animal welfare. To establish G401 xenograft models, WT G401 or p16 knock out cells were washed and resuspended in cold PBS and mixed with Matrigel at 1:1 (v/v) to reach the final ratio of 5 × 10^6 cells per 200 μL. Then the tumor cell mix were injected subcutaneously into the right flank of female Balb/c nude mice (5–6 weeks of age).
(§3) When tumor volume reached around 60-350 mm^3, the mice were numbered and randomized into vehicle or 100 mg/kg MAK683 treatment groups. The random numbers were generated using Excel (Software). The mice with tumor size out of the range were not included in the study. Empirically, at least 6 mice were included for each group. For compound dosing, MAK683 was resolved and suspended in water with 0.5% HPMC and 0.5% Tween at the concentration of 10 mg/mL. Dosing without blinding took place very day in the morning around 8 am. Mice weight and tumor volumes are measured and recorded every 3 days. Tumor volumes were calculated based on perpendicular length and width caliper measurements using the following formula: tumor volume (mm^3) = 0.5 × (length × width^2).
(§4) Tumor tissues were fixed in freshly-prepared 4% PFA for 24 hours, dehydrated through 30%, 50%, 70%, 85%, and 90% ethanol five-minute each, and 100% ethanol triple, permeabilized through xylene five-minute twice and then embedded in paraffin, and finally cut into 5 μm-thick sections. The sections were de-paraffinized with xylene for 10 min triple, rehydrated with ethanol from high to low concentration five minutes each and dH2O twice. […] After cool down to room temperature, endogenous peroxidase was inactivated with 3% H2O2 in methanol. Then the sections were washed with dH2O twice, blocked with 5% normal goat serum in PBS with 0.25% Triton X-100 for 1 hour at room temperature followed by primary antibodies incubation overnight at 4 °C. After HRP-conjugated secondary antibodies were incubated for 1 hours at room temperature, the sections were visualized with DAB. For quantification of Ki-67, H3K27me3 or ITGA2 positivity, the ratios of DAB positive cells to total cells in five representative fields were counted. For quantification of F4/80 positivity, the ratios of DAB positive area to total cells were counted. Five 40 × objective magnification fields per selection were counted and averaged.
Cell senescence study was used by Beyotime in Situ β-galactosidase Staining Kit. Adherent cells were fix by fix-buffer for 15 min at room temperature and wash with PBS twice, then stain by stain-buffer mixture at 37 °C overnight. Frozen tissue sections were counterstained with eosin.

p16 KO G401 cells = assay: Proliferation of p16 KO G401 cells, viable cell count; assay type: cell-based; settings: p16 KO G401 clones vs G401; MAK683 at 1 μM (proliferation), 3 μM 3 days (cell cycle)
Description: as §1
Two pairs of guide RNAs (Supplementary Table 1) targeting the exon2 of human CDKN2A (NM_000077) were designed using ChopChop website. gRNA oligos were synthesized, annealed and subcloned into the pSpCas9(BB)-2A-GFP (PX458). G401 and A2780 cell lines were transfected with the resultant plasmids, cultured for 48 h, and then applied to the single cell sorting for selecting GFP-positive cell by flow cytometer. Single cell clones were first cultured each well of 96-well plate, and then gradually expanded in larger cultures for further experiments. […]

[2] = Body weight of tumor-bearing animals; assay type: in vivo; settings: 100 mg/kg daily, G401 xenograft-bearing mice, 25 days
Description: as §3

p16 KO xenograft tumors = assay: Subcutaneous p16 KO G401 xenograft tumor study; assay type: in vivo, mice
Description: as §2, §3, §4
Cell senescence study was used by Beyotime in Situ β-galactosidase Staining Kit. Adherent cells were fix by fix-buffer for 15 min at room temperature and wash with PBS twice, then stain by stain-buffer mixture at 37 °C overnight. […]

Hs700T cells = assay: Cancer cell proliferation, viable cell count; assay type: cell-based; settings: Hs700T (SMARCA4-deficiency), up to 15 days
Description: as §1

G402 cells = assay: Cancer cell proliferation, viable cell count; assay type: cell-based; settings: G402 (SMARCB1 deficiency), up to 15 days
Description: as §1

A204 cells = assay: Cancer cell proliferation, viable cell count; assay type: cell-based; settings: A204 (SMARCB1 deficiency), up to 15 days
Description: as §1

G401 cells = assay: Cancer cell proliferation, viable cell count; assay type: cell-based; settings: G401 (SMARCB1 deficiency), up to 15 days
Description: as §1

[3] = 100 mg/kg po qd, 25 days treatment
[4] = WT G401 tumor, 100 mg/kg, continuous treatment 46 days, treatment endpoint
[5] = p16 KO xenograft, 100 mg/kg, continuous treatment 46 days, treatment endpoint

## CS(=O)(=O)c1ccc(-c2cnc(NCc3ccco3)n3cnnc23)cc1 [EED226]
[1]
  IC50: 35.9 nM
H3K27me3 in HeLa cell
  IC50: 210 nM

## CCN(c1cc(-c2ccc(CN3CCOCC3)cc2)cc(C(=O)NCc2c(C)cc(C)[nH]c2=O)c1C)C1CCOCC1 [EPZ6438]
MCAS cells
  Sensitivity of proliferation to treatment: not sensitive
RD cells
  Sensitivity of proliferation to treatment: not sensitive
HeLa cells
  Sensitivity of proliferation to treatment: not sensitive
A2780 cells
  Sensitivity of proliferation to treatment: similarly inhibited the proliferation

## Cc1ncccc1-c1cnc(NCc2c(F)ccc3c2CCO3)n2cnnc12 [MAK683]
[1]
  IC50: 1.15 nM
G401 xenograft tumors; [3]
  TGI: 67.20%
  Tumor volume T/C%: 30.55%
G401 xenograft tumors; 100 mg/kg po qd, day 25
  Ki-67 in treated tumors (IHC): significantly reduced
  SA-β-gal activity in treated tumors: increased
G401 xenograft tumors; 100 mg/kg po qd, day 25, 4 h post treatment
  H3K27me3 in treated tumors (IHC): significantly decreased
G401 xenograft tumors; [4]
  T/C%: 7.21%
  TGI: 91.25%
G401 xenograft tumors; WT tumors, 46 days
  Ki67 positivity in tumors: reduced
  SA-β-gal signal in tumors: increased
p16 KO G401 cells
  Response of p16 KO cells to induced cell cycle arrest and proliferation blockage: partially resistant
H3K27me3 in HeLa cell
  IC50: 1.01 nM
[2]
  Animals' body weight: unaffected
p16 KO xenograft tumors; p16 KO tumors, 46 days
  Ki67 positivity in tumors: reduced
p16 KO xenograft tumors; [5]
  T/C%: 35.81%
  TGI: 54.18%
p16 KO xenograft tumors; p16 KO xenografts, 46 days
  SA-β-gal signal in tumors: unchanged
Hs700T cells
  Sensitivity of proliferation to treatment: moderately sensitive
MCAS cells
  Sensitivity of proliferation to treatment: not sensitive
G402 cells
  Sensitivity of proliferation to treatment: sensitive
RD cells
  Sensitivity of proliferation to treatment: not sensitive
HeLa cells
  Sensitivity of proliferation to treatment: not sensitive
A2780 cells
  Sensitivity of proliferation to treatment: moderately sensitive
A204 cells
  Sensitivity of proliferation to treatment: sensitive
G401 cells
  Sensitivity of proliferation to treatment: sensitive
